According to publication PMC3107544 (Biochemistry, 2010):
Like-named read-outs stand apart in the source and are kept apart here. Marks after values point to notes of the source that are not given here.

How the values were obtained:
[1] = target: T1, 5-HT2A receptor (Rattus norvegicus, UniProt P14842); assay type: cell-based; details: DOI 1μM, infected RSK2+/+ cortical neurons
[2] = tested on: 5-HT2A receptor; assay type: cell-based, rat; details: uninfected cortical neurons; DOI 1μM
[3] = target: T1, 5-HT2A receptor; test: cell-based; details: for EC50: pEC50 ± SEM
[4] = target: P2Y purinergic receptor; assay type: cell-based, RSK2−/− mouse embryonic fibroblasts
[5] = target: P2Y purinergic receptor; assay type: cell-based, RSK2+/+ mouse embryonic fibroblasts
[6] = target: P2Y purinergic receptor; assay type: cell-based, RSK2−/− mouse embryonic fibroblasts; remark: listed apart in the source
[7] = target: P2Y purinergic receptor; assay type: cell-based, RSK2+/+ mouse embryonic fibroblasts; remark: listed apart in the source
[8] = target: P2Y purinergic receptor; assay type: cell-based, RSK2−/− mouse embryonic fibroblasts; remark: listed apart in the source
[9] = target: P2Y purinergic receptor; assay type: cell-based, RSK2+/+ mouse embryonic fibroblasts; remark: listed apart in the source
[10] = tested on: P2Y purinergic receptor; test: FLIPR Tetra P2Y-mediated Ca^2+ responses in MEFs; assay type: cell-based, mouse; details: for EC50: read-out: potency (EC50)
[11] = target: 5-HT2A receptor (Mus musculus, UniProt P35363); details: RSK2+/+ mVSMCs; 100nM
[12] = tested on: 5-HT2A-mediated Ca^2+ responses; test: Growth factor attenuation of 5-HT2A-mediated Ca^2+ responses in MEFs; assay type: cell-based, mouse
[13] = tested on: RSK2; test: Immunoprecipitation and immunoblot of RSK2 activation; assay type: cell-based, mouse; details: for maximal activation of RSK2 (sum pixel intensity normalized to total RSK2): RSK2+/+ MEFs, 5 min, EGF 100ng/mL or IGF-1 10nM
[14] = target: IGF-1 R (Mus musculus, UniProt Q60751); test: Immunoblot of IGF-1 R phosphorylation; assay type: cell-based; details: RSK2+/+ MEFs; 10 nM
[15] = tested on: 5-HT2A-mediated Ca^2+ responses; test: Growth factor attenuation of 5-HT2A-mediated Ca^2+ responses in mVSMCs; assay type: cell-based, mouse; details: saturating 5-HT 10μM, 60 min treatment
[16] = RSK2+/+ MEFs, EGF 100ng/mL 0 min (untreated)
[17] = RSK2+/+ MEFs, EGF 100ng/mL 60 min
[18] = RSK2−/− MEFs, EGF 100ng/mL 0 min (untreated)
[19] = RSK2−/− MEFs, EGF 100ng/mL 60 min

5-HT2A receptor (Mus musculus, UniProt P35363), sequence (P35363 whole entry): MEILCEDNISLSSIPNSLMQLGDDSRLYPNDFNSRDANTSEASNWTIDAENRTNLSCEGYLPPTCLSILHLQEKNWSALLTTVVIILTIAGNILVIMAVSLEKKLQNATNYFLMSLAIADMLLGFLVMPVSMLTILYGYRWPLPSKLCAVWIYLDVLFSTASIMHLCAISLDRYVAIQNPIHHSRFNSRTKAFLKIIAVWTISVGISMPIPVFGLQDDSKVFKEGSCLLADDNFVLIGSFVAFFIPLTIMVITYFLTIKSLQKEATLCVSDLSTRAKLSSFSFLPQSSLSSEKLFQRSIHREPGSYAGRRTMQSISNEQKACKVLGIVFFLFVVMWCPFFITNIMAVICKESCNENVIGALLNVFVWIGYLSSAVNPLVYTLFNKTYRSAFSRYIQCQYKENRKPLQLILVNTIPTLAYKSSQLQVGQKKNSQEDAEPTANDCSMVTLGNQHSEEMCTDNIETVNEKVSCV
IGF-1 R, sequence (Q60751 31-737 limits assumed): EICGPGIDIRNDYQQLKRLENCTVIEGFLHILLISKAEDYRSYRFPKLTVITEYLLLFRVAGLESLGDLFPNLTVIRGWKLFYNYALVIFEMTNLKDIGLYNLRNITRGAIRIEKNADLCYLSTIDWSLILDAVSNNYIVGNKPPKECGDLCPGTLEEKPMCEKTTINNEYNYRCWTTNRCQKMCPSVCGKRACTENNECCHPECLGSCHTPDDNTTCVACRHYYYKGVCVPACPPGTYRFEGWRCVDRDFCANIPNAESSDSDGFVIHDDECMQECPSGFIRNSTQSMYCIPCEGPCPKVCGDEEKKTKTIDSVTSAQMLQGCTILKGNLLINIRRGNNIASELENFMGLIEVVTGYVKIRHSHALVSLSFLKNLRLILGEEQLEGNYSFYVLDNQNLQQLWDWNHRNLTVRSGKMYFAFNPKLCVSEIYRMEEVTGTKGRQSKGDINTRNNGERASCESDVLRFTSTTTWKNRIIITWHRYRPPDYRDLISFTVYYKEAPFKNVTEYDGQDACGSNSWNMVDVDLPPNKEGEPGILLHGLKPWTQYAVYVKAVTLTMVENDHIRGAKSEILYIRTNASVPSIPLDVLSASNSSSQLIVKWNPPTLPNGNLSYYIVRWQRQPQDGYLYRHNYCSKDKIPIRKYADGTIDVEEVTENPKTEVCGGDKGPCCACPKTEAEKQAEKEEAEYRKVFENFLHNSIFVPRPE
IGF-1 R, sequence (Q60751 742-1373 limits assumed): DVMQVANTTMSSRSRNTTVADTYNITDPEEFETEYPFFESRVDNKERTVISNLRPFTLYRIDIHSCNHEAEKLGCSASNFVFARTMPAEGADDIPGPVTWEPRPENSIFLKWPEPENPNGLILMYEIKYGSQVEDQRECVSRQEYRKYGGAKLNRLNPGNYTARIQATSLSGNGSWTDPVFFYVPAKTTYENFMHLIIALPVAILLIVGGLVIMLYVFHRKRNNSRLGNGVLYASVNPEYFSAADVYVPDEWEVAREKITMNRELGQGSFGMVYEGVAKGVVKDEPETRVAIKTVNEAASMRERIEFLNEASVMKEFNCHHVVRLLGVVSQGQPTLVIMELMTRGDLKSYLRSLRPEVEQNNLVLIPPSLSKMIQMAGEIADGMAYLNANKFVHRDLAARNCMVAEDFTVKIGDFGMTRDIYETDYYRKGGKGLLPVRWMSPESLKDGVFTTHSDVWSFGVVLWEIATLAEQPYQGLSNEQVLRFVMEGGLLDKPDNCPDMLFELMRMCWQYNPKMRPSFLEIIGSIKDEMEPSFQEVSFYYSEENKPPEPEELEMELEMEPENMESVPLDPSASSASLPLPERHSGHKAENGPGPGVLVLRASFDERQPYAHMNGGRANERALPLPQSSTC

## COc1cc(CC(C)N)c(OC)cc1I.Cl (racemic) [DOI, (±)-2,5-dimethoxy-4-iodoamphetamine hydrochloride]
[1]; EGF 100ng/mL 60 min
  Area under curve: 20.9 +/− 1.2 ^b
[1]; NRG-1 100ng/mL
  Area under curve: 28.6 +/− 1.7 ^b
[1]; RTK ligand None
  Area under curve: 33.7 +/− 1.3
[2]
  Ca^2+ response in uninfected neurons: unresponsive

## COc1ccc2[nH]cc(CCN(C)C)c2c1 [5-methoxy DMT, 5-methoxy-N,N-dimethyltryptamine]
[3]; [16]
  EC50: 25.7 nM
[3]; [17]
  EC50: 67.6 nM
[3]; [18]
  EC50: 89.1 nM
[3]; [19]
  EC50: 89.1 nM
[3]; read-out: Emax± SEM, %, RSK2+/+ MEFs, EGF 100ng/mL 0 min (untreated)
  Emax: 86.7%
[3]; read-out: Emax± SEM, %, RSK2+/+ MEFs, EGF 100ng/mL 60 min
  Emax: 79.6%
[3]; read-out: Emax± SEM, %, RSK2−/− MEFs, EGF 100ng/mL 0 min (untreated)
  Emax: 80.4%
[3]; read-out: Emax± SEM, %, RSK2−/− MEFs, EGF 100ng/mL 60 min
  Emax: 79.1%

## Nc1ncnc2c1ncn2[C@@H]1O[C@H](COP(=O)(O)OP(=O)(O)OP(=O)(O)O)[C@@H](O)[C@H]1O [ATP, adenosine 5'-triphosphate]
[4]
  RSK2−/− MEFs, 60 min, pEC50 ± SEM: 5.30 +/− 0.09
[5]
  RSK2+/+ MEFs, 30 min, pEC50 ± SEM: 4.95 +/− 0.06 ^d
[6]
  RSK2−/− MEFs, 30 min, pEC50 ± SEM: 5.34 +/− 0.09
[7]
  RSK2+/+ MEFs, 0 min, pEC50 ± SEM: 5.16 +/− 0.05
[8]
  RSK2−/− MEFs, 0 min, pEC50 ± SEM: 5.37 +/− 0.09
[9]
  RSK2+/+ MEFs, 60 min, pEC50 ± SEM: 4.88 +/− 0.09 ^d

## Nc1ncnc2c1ncn2[C@@H]1O[C@H](COP(=O)(O)OP(=O)(O)OP(=O)(O)O)[C@@H](O)[C@H]1O [ATP]
[10]; [16]
  Emax± SEM, %: 99.7 +/− 2.0%
[10]; RSK2+/+ MEFs, EGF 100ng/mL 30 min
  Emax± SEM, %: 88.4 +/− 2.5 ^d %
[10]; [17]
  Emax± SEM, %: 82.5 +/− 3.2 ^d %
[10]; [18]
  Emax± SEM, %: 98.6 +/− 3.3%
[10]; RSK2−/− MEFs, EGF 100ng/mL 30 min
  Emax± SEM, %: 93.4 +/− 3.2%
[10]; [19]
  Emax± SEM, %: 100 +/− 3.5%
[10]; RSK2+/+ MEFs, 60 min EGF treatment
  EC50: 13000 nM
[10]; RSK2+/+ MEFs, untreated
  EC50: 7000 nM

## COc1cccc([C@H](O)C2CCN(CCc3ccc(F)cc3)CC2)c1OC [MDL100907]
[11]
  block of 5-HT-elicited Ca^2+ responses: blocked

## EGF: human epidermal growth factor, canonical EGFR agonist
[12]; RSK2+/+ MEFs
  IC50 for attenuation of 5-HT2A-mediated Ca^2+ responses: 1.3 ng/mL
[12]; RSK2+/+ MEFs, 10nM 5-HT, 100ng/mL EGF 1hr, parallel control of IGF-1 experiments
  peak Ca^2+ release: 80.7 +/− 2.3%
[13]
  maximal activation of RSK2 (sum pixel intensity normalized to total RSK2): 1.25 × 10^6 +/− 0.25 × 10^6

## IGF-1: insulin-like growth factor 1, activates the IGF-1 R
[13]
  maximal activation of RSK2 (sum pixel intensity normalized to total RSK2): 0.546 × 10^6 +/− 0.107 × 10^6
[14]
  activation of IGF-1 R (Tyr(P)1158/1162/1163): activated

## TGF-α: transforming growth factor-alpha, selective and potent EGFR agonist
[12]; RSK2+/+ MEFs
  IC50 for attenuation of 5-HT2A-mediated Ca^2+ responses: 4.1 ng/mL

## insulin: insulin, tested for attenuation of 5-HT2A receptor signaling in MEFs
[12]; MEFs, data not shown
  effect on 5-HT2A receptor signaling: no effect
[13]; MEFs, data not shown
  activation of RSK2: modest activation

B1: PDGF-BB: human platelet-derived growth factor BB, PDGFR ligand (protein, UniProt P01127 82-190, looked up)
Platelet-derived growth …: SLGSLTIAEPAMIAECKTRTEVFEISRRLIDRTNANFLVWPPCVEVQRCSGCCNNRNVQCRPTQVQLRPVQVRKIEIVRKKPIFKKATVTLEDHLACKCETVAAARPVT
[15]; RSK2+/+ cells
  peak Ca^2+ release: 67.0 +/− 8.5%
[15]; RSK2−/− cells
  peak Ca^2+ release: 77.9 +/− 7.6%
